Reference: patent publication US7250442B2, “Dihydroindol-2-one derivatives as steroid hormone nuclear receptor modulators” (Eli Lilly and Company, priority 2003, dated 2007)

What follows are compounds tested against T1, human MR (Homo sapiens, UniProt P08235) (assay: Mineralocorticoid Receptor Binding Assay ([3H]-aldosterone displacement)). Conditions: full length human MR expressed in Sf9 cells, 0.5 nM [3H]-aldosterone.
T1 construct: The full length human MR gene is cloned from a human kidney or human brain cDNA library; made in house; host or cells: Sf9 insect cells (baculovirus, pAcHLT transfer vector)
T1 sequence (P08235 1-984): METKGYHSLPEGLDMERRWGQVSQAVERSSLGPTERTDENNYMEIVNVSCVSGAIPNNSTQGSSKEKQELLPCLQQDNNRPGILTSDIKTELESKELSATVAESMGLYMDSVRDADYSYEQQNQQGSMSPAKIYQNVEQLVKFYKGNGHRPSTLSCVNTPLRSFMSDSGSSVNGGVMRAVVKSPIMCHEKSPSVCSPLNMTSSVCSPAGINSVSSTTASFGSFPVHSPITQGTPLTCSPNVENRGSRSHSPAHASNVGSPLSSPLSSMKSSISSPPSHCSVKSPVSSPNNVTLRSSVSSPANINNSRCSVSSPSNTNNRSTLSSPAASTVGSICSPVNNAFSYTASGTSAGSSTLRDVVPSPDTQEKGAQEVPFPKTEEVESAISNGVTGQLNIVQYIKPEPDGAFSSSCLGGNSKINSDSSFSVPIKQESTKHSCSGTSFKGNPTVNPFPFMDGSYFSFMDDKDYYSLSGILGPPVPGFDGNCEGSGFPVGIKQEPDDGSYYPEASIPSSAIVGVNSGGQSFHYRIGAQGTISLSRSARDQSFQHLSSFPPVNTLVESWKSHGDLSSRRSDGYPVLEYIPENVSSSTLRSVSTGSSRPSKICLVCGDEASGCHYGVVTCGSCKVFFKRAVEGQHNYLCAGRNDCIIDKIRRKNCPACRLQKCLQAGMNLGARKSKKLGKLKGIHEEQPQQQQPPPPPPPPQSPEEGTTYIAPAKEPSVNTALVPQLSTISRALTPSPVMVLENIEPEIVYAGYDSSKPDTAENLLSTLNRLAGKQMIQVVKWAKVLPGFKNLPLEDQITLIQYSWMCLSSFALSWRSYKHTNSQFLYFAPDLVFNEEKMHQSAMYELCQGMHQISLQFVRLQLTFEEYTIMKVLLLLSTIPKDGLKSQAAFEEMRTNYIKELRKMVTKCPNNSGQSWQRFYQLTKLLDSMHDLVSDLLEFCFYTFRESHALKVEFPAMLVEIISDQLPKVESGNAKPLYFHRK
Protocol: Mineralocorticoid Receptor Binding Assay:
The full length human MR gene is cloned from a human kidney or human brain cDNA library. Briefly, using synthetic oligonucleotide primers (Eli Lilly and Company, Indianapolis) directed to nucleotides 20-54 and 3700-3666 of the human MR, polymerase chain reaction (PCR) is performed under standard conditions using a human cDNA library. The PCR reaction is performed in a final volume of 50 μl containing about 1 μl of a 50× stock solution of polymerase; about 1 μl of a 50× stock solution of dNTP; about 5 μl of an appropriate PCR buffer; about 1 μl of each primer; about 5 μl of a H. kidney or H. brain cDNA library; and about 36 μl of water. The reaction is allowed to denature for about 30 seconds at 95 degrees Celsius, anneal for about 30 seconds at 55 degrees Celsius, and extend for about 5 minutes at 72 degrees Celsius, the sequence being repeated for a total of about 35 cycles. The desired PCR product (3.68 Kb) is confirmed by gel electrophoresis and subsequently cut from the gel and stored at about −20 degrees Celsius until extraction. To extract the cDNA product from the agarose gel, the QIAEX II Gel Extraction protocol (QIAGEN, Inc.) is employed according to the manufacturer's instructions. Following extraction, the MR cDNA is cloned into an appropriate cloning vector (Zero Blunt TOPO PCR Cloning Kit (Invitrogen, Inc.) and a pAcHLT-baculovirus transfer vector (B.D./Pharminogen), then expressed in SF9 insect cells, essentially according to manufacturer's instructions. Sf9 cells are grown at a scale where gram quantity cell pellets are obtained for subsequent use in the MR binding assay. Harvested cell pellets are lysed by repeated freeze-thaw cycles (about 4) in a suitable lysis buffer then centrifuged at about 1×10^3 G (with the supernatant being saved for future assays).
MR binding assays are performed in a final total volume of about 250 μl containing about 20-25 μg of protein and 0.5 nM of [^3H]-aldosterone plus varying concentrations of test compound or vehicle. The assay binding buffer consists of 30 mM sodium molybdate, 30 mM of TRIS-HCl, 5 mM sodium phosphate, 5 mM sodium pyrophosphate, and about 10% glycerol, pH=7.5.
Briefly, assays are prepared at RT in 96-well Falcon 3072 plates, each well containing 210 μl of binding buffer, 10 μl of [^3H]-aldosterone, 10 μl of test compound/vehicle, and 20 μl of the resuspended receptor protein extract. Incubations are carried out at 4 degrees Celsius with shaking for about 16 hours. 200 μl aliquots of each incubation are filtered onto Millipore HA 0.45 micron 96-well filter plates, pre-moistened with cold 30 mM TRIS-HCl. The filter plates are suctioned dry with vacuum and immediately washed 3× with cold 30 mM TRIS-HCl. The plates are then punched out and the amount of receptor-ligand complex is determined by liquid scintillation counting using 4 ml of Ready Protein Plus™ liquid scintillation cocktail.
IC50 values (defined as the concentration of test compound required to decrease [^3H]-aldosterone binding by 50%) are then determined. Ki values for each respective test compound can then be calculated by application of the Cheng-Prusoff equation as described in Cheng et al., Relationship Between The Inhibition Constant (Ki) and The Concentration of Inhibitor Which Causes 50% Inhibition (IC50) of an Enzymatic Reaction, Biochem. Pharmacol., 22: 3099-31088; (1973).

Structure (SMILES) | Ki
COc1ccc(-c2noc(CN3C(=O)C(c4cc(C)c(O)c(C)c4)(c4cc(C)c(O)c(C)c4)c4ccccc43)n2)cc1 [Example 142, 3,3-Bis-(4-hydroxy-3,5-dimethyl-phenyl)-1-[3-(4-methoxy-phenyl)-[1,2,4]oxadiazol-5-ylmethyl]-1,3-dihydro-indol-2-one] | ≤ 500 nM
Cc1cc(C2(c3cc(C)c(O)c(C)c3)C(=O)N(Cc3ccccc3N)c3ccccc32)cc(C)c1O [Example 119, 1-(2-Amino-benzyl)-3,3-bis-(4-hydroxy-3,5-dimethyl-phenyl)-1,3-dihydro-indol-2-one] | ≤ 500 nM
Cc1cc(C2(c3ccc(O)cc3)C(=O)N(Cc3ccccc3Cl)c3ccccc32)cc(C)c1O (centres unmarked) [Example 36, 1-(2-Chloro-benzyl)-3-(4-hydroxy-3,5-dimethyl-phenyl)-3-(4-hydroxy-phenyl)-1,3-dihydro-indol-2-one] | ≤ 500 nM
COC(=O)c1ccc(CN2C(=O)C(c3cc(C)c(O)c(C)c3)(c3cc(C)c(O)c(C)c3)c3ccccc32)cc1 [Example 3, 4-[3,3-Bis-(4-hydroxy-3,5-dimethyl-phenyl)-2-oxo-2,3-dihydro-indol-1-ylmethyl]-benzoic acid methyl ester] | ≤ 500 nM
Cc1cc(C2(c3cc(C)c(O)c(C)c3)C(=O)N(Cc3ccccc3Cl)c3ccccc32)cc(C)c1O [Example 11, 1-(2-Chloro-benzyl)-3,3-bis-(4-hydroxy-3,5-dimethyl-phenyl)-1,3-dihydro-indol-2-one] | ≤ 500 nM
CCOc1cccc(N2C(=O)C(c3cc(C)c(O)c(C)c3)(c3cc(C)c(O)c(C)c3)c3ccccc32)c1 [Example 137, 1-(3-Ethoxy-phenyl)-3,3-bis-(4-hydroxy-3,5-dimethyl-phenyl)-1,3-dihydro-indol-2-one] | ≤ 500 nM
Cc1cc(C2(c3cc(C)c(O)c(C)c3)C(=O)N(Cc3ccccc3F)c3ccccc32)cc(C)c1O [Example 50, 1-(2-Fluoro-benzyl)-3,3-bis-(4-hydroxy-3,5-dimethyl-phenyl)-1,3-dihydro-indol-2-one] | ≤ 500 nM
Cc1ccc(N2C(=O)C(c3cc(C)c(O)c(C)c3)(c3cc(C)c(O)c(C)c3)c3ccccc32)cc1 [Example 125, 3,3-Bis-(4-hydroxy-3,5-dimethyl-phenyl)-1-p-tolyl-1,3-dihydro-indol-2-one] | ≤ 500 nM
Cc1cc(C2(c3cc(C)c(O)c(C)c3)C(=O)N(Cc3c(F)cccc3F)c3ccccc32)cc(C)c1O [Example 115, 1-(2,6-Difluoro-benzyl)-3,3-bis-(4-hydroxy-3,5-dimethyl-phenyl)-1,3-dihydro-indol-2-one] | ≤ 500 nM
Cc1cc(C2(c3cc(C)c(O)c(C)c3)C(=O)N(Cc3ccccc3)c3ccc(Br)cc32)cc(C)c1O [Example 15, 1-Benzyl-5-bromo-3,3-bis-(4-hydroxy-3,5-dimethyl-phenyl)-1,3-dihydro-indol-2-one] | ≤ 500 nM
Cc1cc(C2(c3cc(C)c(O)c(C)c3)C(=O)N(Cc3ccc4ccccc4n3)c3ccccc32)cc(C)c1O [Example 97, 3,3-Bis-(4-hydroxy-3,5-dimethyl-phenyl)-1-quinolin-2-ylmethyl-1,3-dihydro-indol-2-one] | ≤ 500 nM
Cc1cc(C2(c3cc(C)c(O)c(C)c3)C(=O)N(C)c3ccccc32)cc(C)c1O [Example 4, 3,3-Bis-(4-hydroxy-3,5-dimethyl-phenyl)-1-methyl-1,3-dihydro-indol-2-one] | ≤ 1000 nM
O=C1N(Cc2ccccc2)c2ccccc2C1(c1cc(Cl)c(O)c(Cl)c1)c1cc(Cl)c(O)c(Cl)c1 [Example 14, 1-Benzyl-3,3-bis-(3,5-dichloro-4-hydroxy-phenyl)-1,3-dihydro-indol-2-one] | ≤ 1000 nM
CCc1nc(CN2C(=O)C(c3cc(C)c(O)c(C)c3)(c3cc(C)c(O)c(C)c3)c3ccccc32)cs1 [Example 90, 1-(2-Ethyl-thiazol-4-ylmethyl)-3,3-bis-(4-hydroxy-3,5-dimethyl-phenyl)-1,3-dihydro-indol-2-one] | ≤ 500 nM
Cc1cc(C2(c3cc(C)c(O)c(C)c3)C(=O)N(Cc3ccccc3-c3ccccc3)c3ccccc32)cc(C)c1O [Example 54, 1-Biphenyl-2-ylmethyl-3,3-bis-(4-hydroxy-3,5-dimethyl-phenyl)-1,3-dihydro-indol-2-one] | ≤ 500 nM
COc1cccc(CN2C(=O)C(c3cc(C)c(O)c(C)c3)(c3cc(C)c(O)c(C)c3)c3ccccc32)c1 [Example 56, 3,3-Bis-(4-hydroxy-3,5-dimethyl-phenyl)-1-(3-methoxy-benzyl)-1,3-dihydro-indol-2-one] | ≤ 500 nM
Cc1cc(C2(c3cc(C)c(O)c(C)c3)C(=O)N(Cc3c(C)noc3C)c3ccccc32)cc(C)c1O [Example 9, 1-(3,5-Dimethyl-isoxazol-4-ylmethyl)-3,3-bis-(4-hydroxy-3,5-dimethyl-phenyl)-1,3-dihydro-indol-2-one] | ≤ 500 nM
Cc1cc(C2(c3cc(C)c(O)c(C)c3)C(=O)N(Cc3ccncc3)c3ccccc32)cc(C)c1O [Example 111, 3,3-Bis-(4-hydroxy-3,5-dimethyl-phenyl)-1-pyridin-4-ylmethyl-1,3-dihydro-indol-2-one] | ≤ 500 nM
Cc1cc(C2(c3cc(C)c(O)c(C)c3)C(=O)N(Cc3ccccc3Br)c3ccccc32)cc(C)c1O [Example 63, 1-(2-Bromo-benzyl)-3,3-bis-(4-hydroxy-3,5-dimethyl-phenyl)-1,3-dihydro-indol-2-one] | ≤ 500 nM
Cc1ccc2c(c1)C(c1cc(C)c(O)c(C)c1)(c1cc(C)c(O)c(C)c1)C(=O)N2Cc1csc(-c2ccccc2)n1 [Example 92, 3,3-Bis-(4-hydroxy-3,5-dimethyl-phenyl)-5-methyl-1-(2-phenyl-thiazol-4-ylmethyl)-1,3-dihydro-indol-2-one] | ≤ 500 nM
Cc1cc(C2(c3ccc(O)c(C)c3)C(=O)N(Cc3ccccc3)c3ccccc32)ccc1O [Example 12, 1-Benzyl-3,3-bis-(4-hydroxy-3-methyl-phenyl)-1,3-dihydro-indol-2-one] | ≤ 500 nM
Cc1cc(C2(c3cc(C)c(O)c(C)c3)C(=O)N(c3cccc(C(C)C)c3)c3ccccc32)cc(C)c1O [Example 138, 3,3-Bis-(4-hydroxy-3,5-dimethyl-phenyl)-1-(3-isopropyl-phenyl)-1,3-dihydro-indol-2-one] | ≤ 500 nM
COc1ccc(-c2nc(CN3C(=O)C(c4cc(C)c(O)c(C)c4)(c4cc(C)c(O)c(C)c4)c4ccccc43)no2)cc1 [Example 99, 3,3-Bis-(4-hydroxy-3,5-dimethyl-phenyl)-1-[5-(4-methoxy-phenyl)-[1,2,4]oxadiazol-3-ylmethyl]-1,3-dihydro-indol-2-one] | ≤ 500 nM
